According to article PMC6753678, “Fueling Open Innovation for Malaria Transmission-Blocking Drugs: Hundreds of Molecules Targeting Early Parasite Mosquito Stages” (Frontiers in Microbiology, 2019):
Where two headings read alike, the source gives them in different places.

Legend:
[1] = test system: 3D7-strain P. falciparum asexual parasites; experiment: P. falciparum asexual growth inhibition assay (Pf GIA); type: cell-based, Plasmodium falciparum; settings: dose response confirmation; read-out: Pf asexual growth inhibition assays IC50
Outline: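 3D7 parasites at 0.25% parasitemia, 2% hematocrit were exposed to compounds in dose response for 72 h at 37°C under 5% CO2, 5% O2. Viability read as parasite LDH activity (nitro blue tetrazolium, A650) after freeze-thaw; inhibition scaled to chloroquine (50 μM) and DMSO controls, mean of three biological replicates.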

[2] = test system: P. berghei ookinete development; settings: for % inhibition, Replicate A / % inhibition, Replicate B: primary screen at 1 μM
HepG2 cells = experiment: HepG2 cytotoxicity assay; settings: for Pb ODA (this manuscript) HepG2 cytoxicity: HepG2 cytotoxicity listed with the Pb ODA data set (this manuscript); for IC50: read-out: HepG2 cytotoxicity assay IC50, dose response confirmation
Outline: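 Cells at 2,500 per well in MEM with 10% fetal bovine serum and 1% NEAA were exposed to test compounds for 48 h at 37°C, 5% CO2. Viability was read by fluorescence, with percent inhibition calculated against 50 μM doxorubicin (positive) and DMSO (negative) controls.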

[3] = read-out: Pb ODA (this manuscript) IC50, P. berghei ookinete development assay, this manuscript
[4] = read-out: Pb Ookinete development assay IC50, dose response confirmation
[5] = read-out: Pb ODA IC50, this manuscript
[6] = unified HepG2 value across the three screens
[7] = HepG2 values of the three screens unified

| SMILES | IC50 [1] [µM] | Is compound selective in assay? Pb ODA active? [2] | % inhibition, Replicate A [2] [%] | % inhibition, Replicate B [2] [%] | IC50 [2, 3] [µM] | IC50 [2, 4] [µM] | Pb ODA (this manuscript) HepG2 cytoxicity (HepG2 cells) [µM] | IC50 (HepG2 cells) [µM] | Is compound selective in assay? Pb ODA active? ([2]; 1: YES, 0: NO) | IC50 [2, 5] [µM] | Unified cytotox (HepG2 cells; [6]) [µM] | HepG2 cytoxicity (Pb ODA, this manuscript) (HepG2 cells) [µM] | Unified cytotox (HepG2 cells; [7]) [µM] |
| --- | --- | --- | --- | --- | --- | --- | --- | --- | --- | --- | --- | --- | --- |
| COc1ccc2ncc(F)c(CCN3CCC(NCc4cc(Br)c5c(c4)OCCO5)CC3)c2n1.Cl [TCMDC-136211] | 0.239 | 0 (key: 1: YES; 0: NO) | 36.10 | 50.60 | 3.39 | 3.4 | 14.45 | 14.5 |  |  |  |  |  |
| CCCCN(C)CC#Cc1ccc(-c2ccc3[nH]c(C)c(Br)c(=O)c3c2)cn1 [TCMDC-136285] | 1.06 |  | 73.89 | 66.49 |  | 1.02 |  | 100 | 1 (1: YES) | 1.02 | 100.00 |  |  |
| Cc1[nH]c(C)c(-c2ccc(-c3cccc(OC(F)(F)F)c3)nc2)c(=O)c1Cl [TCMDC-136286] | 0.258 |  | 104.87 | 108.75 |  | 0.303 |  | 8.51 | 1 (1: YES) | 0.3 |  | 8.51 | 8.51 |
| Cc1[nH]c(C)c(-c2ccc(-c3cccc(Cl)c3)nc2)c(=O)c1Cl [TCMDC-136300] | 0.203 |  | 90.77 | 81.67 |  | 0.675 |  | 56.2 | 1 (1: YES) | 0.68 |  | 56.23 | 56.23 |
| Cc1[nH]c(C)c(-c2ccc(-c3ccc(Cl)cc3)nc2)c(=O)c1Cl [TCMDC-136301] | 0.193 |  | 94.15 | 37.57 |  | 0.963 |  | 100 | 1 (1: YES) | 0.96 |  |  | 100.00 |
| Cc1[nH]c(C)c(-c2ccc(-c3ccccc3Cl)nc2)c(=O)c1Cl [TCMDC-136303] | 0.248 |  | 118.12 | 98.57 |  | 0.229 |  | 100 | 1 (1: YES) | 0.23 |  |  | 100.00 |
| COc1ccc2ncc(F)c(NC(=O)C3CCC(NCc4cc5c(F)cccc5[nH]4)CC3)c2n1.Cl (stereo not drawn) [TCMDC-136354] | 0.475 | 1 (key: 1: YES; 0: NO) | 86.49 | 82.69 | 0.25 | 0.252 | 3.63 | 3.63 |  |  |  |  |  |
| COc1ccc2ncc(F)c(NC(=O)C3CCC(NCc4cc5cc(F)cc(F)c5[nH]4)CC3)c2n1.Cl (stereo not drawn) [TCMDC-136455] | 2.43 | 1 (key: 1: YES; 0: NO) | 109.55 | 94.56 | 1.02 | 1.02 | 15.49 | 15.5 |  |  |  |  |  |
| CN1CCN(CC(=O)Nc2ccc(-c3ccc(-c4nc5ccccc5[nH]4)cc3)cc2)CC1 [TCMDC-136979] | 1.11 |  | 58.34 | 20.87 |  | 4.19 |  | 21.6 | 0 (0: NO) | 4.19 | 21.63 |  |  |
| Cc1cc(=O)c2cc(-c3ccc(OC(F)(F)F)cc3)ccc2[nH]1 [TCMDC-137042] | 2.19 |  | 37.82 | 64.25 |  | 6.38 |  | 100 | 1 (1: YES) | 6.38 | 100.00 |  |  |
| Cl.c1ccc(Oc2ccc(Nc3nncc4ccccc34)cc2)cc1 [TCMDC-137229] | 0.544 |  | 75.48 | 62.89 |  | 0.692 |  | 100 | 1 (1: YES) | 0.69 | 100.00 |  |  |
| Cc1c(Cc2ccccc2Br)cnc2nc(N)nc(N)c12.Cl [TCMDC-137244] | 0.004 | 0 (key: 1: YES; 0: NO) | 44.00 | 63.36 | 8.49 | 8.49 | 0.00776 | 0.00776 |  |  |  |  |  |
| Cc1cc(=O)c(-c2ccc(Oc3cccc(Cl)c3)cc2)c(C)[nH]1 [TCMDC-137265] | 1.85 |  | 110.80 | 102.47 |  | 1.28 |  | 3.72 | 0 (0: NO) | 1.28 |  | 3.72 | 3.72 |
| Cc1cc(=O)c(-c2ccc(Oc3cccc(OC(F)(F)F)c3)cc2)c(C)[nH]1 [TCMDC-137266] | 0.099 | 1 (key: 1: YES; 0: NO) | 74.10 | 97.06 | 0.2 | 0.205 | 10.72 | 10.7 |  |  |  |  |  |
| CCCCCCCCCc1c(C)[nH]c2ccccc2c1=O [TCMDC-137268] | 0.168 | 1 (key: 1: YES; 0: NO) | 77.84 | 91.25 | 0.39 | 0.386 | 67.61 | 67.6 |  |  |  |  |  |
| CCCCCCCc1c(C)[nH]c2ccc(F)cc2c1=O [TCMDC-137269] | 0.208 | 1 (key: 1: YES; 0: NO) | 57.79 | 78.85 | 0.32 | 0.319 | 100.00 | 100 |  |  |  |  |  |
| CCC(CC)n1c(C)cc2c3c(N)nc(N)nc3ccc21 [TCMDC-137283] | < 0.0002 |  | 93.53 | 103.53 |  | 0.846 |  | 0.0017 | 0 (0: NO) | 0.85 |  | 0.0017 | 0.0017 |
| CCN(CC)S(=O)(=O)n1ncc2c3c(N)nc(N)nc3ccc21.Cl [TCMDC-137302] | 0.079 | 0 (key: 1: YES; 0: NO) | 53.62 | 57.06 |  | 2 | 0.0531 | 0.0531 |  |  |  |  |  |
| CCc1cc2c3c(N)nc(N)nc3ccc2n1C(C)(C)C [TCMDC-137306] | 0.0032 |  | 81.63 | 92.90 |  | 1.08 |  | 0.0017 | 0 (0: NO) | 1.08 |  | 0.0017 | 0.0017 |
